Results from ChEMBL document CHEMBL6078617, “Discovery of MK-1084: An Orally Bioavailable and Low-Dose KRASG12C Inhibitor” (J Med Chem, 2024).
Calls of active or inactive are those of the source. No cut-off for these calls is given here.

Assays:
GTPase KRas [1] = target: T1, GTPase KRas (Homo sapiens, UniProt P01116, G12C); experiment: Inhibition of recombinant biotinylated KRAS G12C mutant (unknown origin) assessed as human SOS catalyzed nucleotide exchange measured after 60 mins by TR-FRET based guanine nucleotide exchange assay
T1 sequence (P01116 whole entry G12C): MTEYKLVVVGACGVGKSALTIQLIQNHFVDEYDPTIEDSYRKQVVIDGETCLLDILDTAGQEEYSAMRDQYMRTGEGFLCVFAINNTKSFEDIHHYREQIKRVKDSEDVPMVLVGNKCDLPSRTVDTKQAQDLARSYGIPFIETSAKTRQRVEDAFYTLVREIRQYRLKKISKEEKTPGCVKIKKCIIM

GTPase KRas [2] = target: T1, GTPase KRas; experiment: Inhibition of KRAS G12C mutant in human NCI-H358 cells assessed as reduction in Erk1/2 phosphorylation level measured for 8 hrs by Western blot analysis; assay type: cell-based
[3] = Apparent permeability in MDCK-II cells; assay type: ADME, cell-based, Canis lupus familiaris; settings: dog
[4] = Plasma clearance in fasted Wistar-Han rat measured up to 24 hrs by LC-MS/MS analysis; assay type: ADME
[5] = Unbound plasma clearance in fasted Wistar-Han rat measured up to 24 hrs by LC-MS/MS analysis; assay type: ADME
[6] = MRT in fasted Wistar-Han rat measured up to 24 hrs by LC-MS/MS analysis; assay type: ADME; settings: in vivo
[7] = Oral bioavailability in fasted Wistar-Han rat measured up to 24 hrs by LC-MS/MS analysis; assay type: ADME, organism-based; settings: in vivo
[8] = Oral bioavailability in fasted Wistar-Han rat measured up to 24 hrs pre-dosed with ABT by LC-MS/MS analysis; assay type: ADME, organism-based; settings: in vivo
[9] = Plasma clearance in male Beagle dog measured up to 24 hrs by LC-MS/MS analysis; assay type: ADME, Canis lupus familiaris
[10] = Unbound plasma clearance in male Beagle dog measured up to 24 hrs by LC-MS/MS analysis; assay type: ADME, Canis lupus familiaris
[11] = MRT in male Beagle dog measured up to 24 hrs by LC-MS/MS analysis; assay type: ADME, Canis lupus familiaris; settings: in vivo
[12] = Oral bioavailability in male Beagle dog measured up to 24 hrs by LC-MS/MS analysis; assay type: ADME, organism-based, Canis lupus familiaris; settings: in vivo
MIA PaCa-2 = experiment: In vivo antitumor activity against […] cells xenografted in rat model assessed as decrease in tumor volume at 30 mg/kg, po qd measured up to 21 days; assay type: functional, organism-based; settings: Homo sapiens, time <= 21.0 day
PDX LU2512 = experiment: In vivo antitumor activity against patient-derived PDX LU2512 cells xenografted in rat model assessed as decrease in tumor volume at 30 mg/kg, po qd measured up to 21 days; assay type: functional, organism-based; settings: Homo sapiens, time <= 21.0 day
PDX LU2529 = experiment: In vivo antitumor activity against patient-derived PDX LU2529 cells xenografted in rat model assessed as decrease in tumor volume at 30 mg/kg, po qd measured up to 21 days; assay type: functional, organism-based; settings: Homo sapiens, time <= 21.0 day

SMILES | IC50 (GTPase KRas [1]) | IC50 (GTPase KRas [2]) | Papp [3] | clearance [4] | CL free [5] | MRT [6] | bioavailability [7] | bioavailability [8] | clearance [9] | CL free [10] | MRT [11] | bioavailability [12] | Activity (MIA PaCa-2) | Activity (PDX LU2512) | Activity (PDX LU2529)
C=CC(=O)N1CCN(c2nc(=O)n3c4nc(c(Cl)cc24)-c2c(F)cccc2OCCc2ccccc2-3)[C@@H](C)C1 | 1410 nM | 3830 nM |  |  |  |  |  |  |  |  |  |  |  |  | 
C=CC(=O)N1CCN(c2nc(=O)n3c4nc(c(F)cc24)-c2c(F)cccc2OCCCCc2ccnc(C(C)C)c2-3)[C@@H](C)C1 | 1.2 nM | 4.8 nM | 17 ×10⁻⁶ cm/s | 80 mL/min/kg | 770 mL/min/kg | 0.4 h | 2% | 50% |  |  |  |  |  |  | 
C=CC(=O)N1C[C@H](C)N(c2nc(=O)n3c4nc(c(F)cc24)-c2c(F)cccc2OCCOc2ccnc(C(C)C)c2-3)C[C@H]1C | 6.5 nM | 11 nM | 8 ×10⁻⁶ cm/s | 49 mL/min/kg | 299 mL/min/kg | 0.6 h | 5% | 11% |  |  |  |  |  |  | 
C=CC(=O)N1C[C@H](C)N(c2nc(=O)n3c4nc(c(C)cc24)-c2c(F)ccc(F)c2OCCOc2ccnc(C(C)C)c2-3)C[C@H]1C | 4.5 nM | 30 nM | 13 ×10⁻⁶ cm/s | 12 mL/min/kg | 148 mL/min/kg | 0.9 h | 17% |  |  |  |  |  |  |  | 
C=CC(=O)N1C[C@H](C)N(c2nc(=O)n3c4nc(c(F)cc24)-c2c(F)ccc(F)c2OCCOc2ccnc(C(C)C)c2-3)C[C@H]1C | 3.5 nM | 28 nM | 15 ×10⁻⁶ cm/s | 13 mL/min/kg | 126 mL/min/kg | 1.4 h | 25% |  | 32 mL/min/kg | 130 mL/min/kg | 0.8 h | 67% |  |  | 
C=CC(=O)N1C[C@H](C)N(c2nc(=O)n3c4nc(c(F)cc24)-c2c(F)cc(F)cc2OCCOc2ccnc(C(C)C)c2-3)C[C@H]1C | 6.9 nM | 16 nM |  | 40 mL/min/kg | 407 mL/min/kg | 0.7 h | 12% |  |  |  |  |  |  |  | 
C=CC(=O)N1C[C@H](C)N(c2nc(=O)n3c4nc(c(F)cc24)-c2c(ccc(F)c2F)OCCOc2ccnc(C(C)C)c2-3)C[C@H]1C | 5.3 nM | 10 nM | 9 ×10⁻⁶ cm/s | 26 mL/min/kg | 434 mL/min/kg | 0.7 h | 10% |  |  |  |  |  |  |  | 
C=CC(=O)N1C[C@H](C)N(c2nc(=O)n3c4nc(c(F)cc24)-c2c(F)cc(F)cc2OCC(F)(F)CCc2ccnc(C(C)C)c2-3)C[C@H]1C | 1.1 nM | 8.9 nM | 31 ×10⁻⁶ cm/s | 10 mL/min/kg | 270 mL/min/kg | 2.6 h | 53% |  | 9.7 mL/min/kg | 194 mL/min/kg | 2.5 h | 76% |  |  | 
C=CC(=O)N1C[C@H](C)N(c2nc(=O)n3c4nc(c(F)cc24)-c2c(ccc(F)c2F)OCC(F)(F)CCc2ccnc(C(C)C)c2-3)C[C@H]1C | 3 nM | 5.2 nM | 25 ×10⁻⁶ cm/s | 13 mL/min/kg | 213 mL/min/kg | 1.8 h | 42% |  | 7.3 mL/min/kg | 128 mL/min/kg | 3.3 h | 80% |  |  | 
C=CC(=O)N1C[C@H](C)N(c2nc(=O)n3c4nc(c(F)cc24)-c2c(F)cccc2OCCCc2ccnc(C(C)C)c2-3)C[C@H]1C | 1.7 nM | 7.4 nM |  |  |  |  |  |  |  |  |  |  |  |  | 
C=CC(=O)N1CCN(c2nc(=O)n3c4nc(c(F)cc24)-c2c(F)cccc2OCCCOc2ccnc(C(C)C)c2-3)[C@@H](C)C1 | 11 nM | 21 nM |  |  |  |  |  |  |  |  |  |  |  |  | 
C=CC(=O)N1CCN(c2nc(=O)n3c4nc(c(F)cc24)-c2c(F)cccc2OCCCc2ccnc(C(C)C)c2-3)[C@@H](C)C1 | 4.3 nM | 5.4 nM |  |  |  |  |  |  |  |  |  |  |  |  | 
C=CC(=O)N1C[C@H](C)N(c2nc(=O)n3c4nc(c(F)cc24)-c2c(F)cccc2OCC(F)(F)CCc2ccnc(C(C)C)c2-3)C[C@H]1C | 2.9 nM | 6.6 nM | 23 ×10⁻⁶ cm/s | 9.7 mL/min/kg | 113 mL/min/kg | 2.3 h | 12% |  | 18 mL/min/kg | 160 mL/min/kg | 2.2 h | 59% |  |  | 
C=CC(=O)N1C[C@H](C)N(c2nc(=O)n3c4nc(c(Cl)cc24)-c2c(F)ccc(F)c2OCCOc2ccnc(C(C)C)c2-3)C[C@H]1C | 1.2 nM | 9 nM | 20 ×10⁻⁶ cm/s | 22 mL/min/kg | 606 mL/min/kg | 1.1 h | 61% |  | 28 mL/min/kg | 243 mL/min/kg | 1.1 h | 58% | Active | Active | Active
